From ChEMBL document CHEMBL3885881, “DrugMatrix”

Species on record: Rattus norvegicus
Test: DrugMatrix - Regimen: Daily Repeat
Format: toxicity, organism-based, Sprague-Dawley
Set-up: regimen Daily Repeat, gender Male, age 6-8 weeks
Details: in vivo, po, route oral GAVAGE, […]; for ABSOLUTE BASOPHIL / ABSOLUTE EOSINOPHIL / ABSOLUTE LYMPHOCYTE / ABSOLUTE MONOCYTE / ABSOLUTE SEGMENTED NEUTROPHIL / BASOPHIL / EOSINOPHIL / ERYTHROCYTE COUNT / HEMATOCRIT / HEMOGLOBIN / LEUKOCYTE COUNT / LYMPHOCYTE / MEAN CORPUSCULAR HEMOGLOBIN / MEAN CORPUSCULAR HEMOGLOBIN CONCENTRATION / MEAN CORPUSCULAR VOLUME / MONOCYTE / NEUTROPHIL / NUCLEATED RED BLOOD CELLS / PLATELET COUNT: tissue Blood; for ALANINE AMINOTRANSFERASE / ALBUMIN / ALKALINE PHOSPHATASE / ASPARTATE AMINOTRANSFERASE / BLOOD UREA NITROGEN / CARBON DIOXIDE / CHLORIDE / CHOLESTEROL / CREATINE PHOSPHOKINASE / CREATININE / GLUCOSE / LACTATE DEHYDROGENASE / LIPASE / PHOSPHORUS / POTASSIUM / SODIUM / TOTAL BILIRUBIN / TOTAL PROTEIN / URIC ACID: tissue Plasma
[1] = 4 mg/kg, 120 h, dose level Low, time 5 day
[2] = 63 mg/kg, 72 h, dose level High, time 3 day
[3] = 63 mg/kg, 120 h, dose level High, time 5 day

CSc1ccc2c(c1)N(CCC1CCCCN1C)c1ccccc1S2 (centres undefined) [THIORIDAZINE]
ABSOLUTE BASOPHIL [1]: 0 CELLS/uL
ABSOLUTE EOSINOPHIL [1]: 185.33 CELLS/uL
ABSOLUTE LYMPHOCYTE [1]: 12393.33 CELLS/uL
ABSOLUTE MONOCYTE [1]: 143.33 CELLS/uL
ABSOLUTE SEGMENTED NEUTROPHIL [1]: 1078 CELLS/uL
BASOPHIL [1]: 0%
EOSINOPHIL [1]: 1.33%
ERYTHROCYTE COUNT [1]: 6.21 x10E6/uL
HEMATOCRIT [1]: 39.13%
HEMOGLOBIN [1]: 14.43 G/DL
LEUKOCYTE COUNT [1]: 13.8 x10E3/uL
LYMPHOCYTE [1]: 90%
MEAN CORPUSCULAR HEMOGLOBIN [1]: 23.27 pg
MEAN CORPUSCULAR HEMOGLOBIN CONCENTRATION [1]: 36.87 G/DL
MEAN CORPUSCULAR VOLUME [1]: 63.13 fL
MONOCYTE [1]: 1%
NEUTROPHIL [1]: 7.67%
NUCLEATED RED BLOOD CELLS [1]: 0.33 /100WBC
PLATELET COUNT [1]: 1375 x10E3/uL
ALANINE AMINOTRANSFERASE [1]: 42.67 u/L
ALBUMIN [1]: 4.4 G/DL
ALKALINE PHOSPHATASE [1]: 474.67 u/L
ASPARTATE AMINOTRANSFERASE [1]: 94.67 u/L
BLOOD UREA NITROGEN [1]: 17.67 mg/dL
CARBON DIOXIDE [1]: 24.33 mmol/L
CHLORIDE [1]: 103.67 MEQ/L
CHOLESTEROL [1]: 48.67 mg/dL
CREATINE PHOSPHOKINASE [1]: 499.33 u/L
CREATININE [1]: 0.19 mg/dL
GLUCOSE [1]: 188 mg/dL
LACTATE DEHYDROGENASE [1]: 405 u/L
LIPASE [1]: 9.33 u/L
PHOSPHORUS [1]: 12.77 mg/dL
POTASSIUM [1]: 5.85 MEQ/L
SODIUM [1]: 141.6 MEQ/L
TOTAL BILIRUBIN [1]: 0.1 mg/dL
TOTAL PROTEIN [1]: 6.63 G/DL
URIC ACID [1]: 2.07 mg/dL
ABSOLUTE BASOPHIL [2]: 0 CELLS/uL
ABSOLUTE EOSINOPHIL [2]: 50 CELLS/uL
ABSOLUTE LYMPHOCYTE [2]: 8382 CELLS/uL
ABSOLUTE MONOCYTE [2]: 59.67 CELLS/uL
ABSOLUTE SEGMENTED NEUTROPHIL [2]: 575 CELLS/uL
BASOPHIL [2]: 0%
EOSINOPHIL [2]: 0.67%
ERYTHROCYTE COUNT [2]: 5.2 x10E6/uL
HEMATOCRIT [2]: 32.73%
HEMOGLOBIN [2]: 12.73 G/DL
LEUKOCYTE COUNT [2]: 9.07 x10E3/uL
LYMPHOCYTE [2]: 92.33%
MEAN CORPUSCULAR HEMOGLOBIN [2]: 24.53 pg
MEAN CORPUSCULAR HEMOGLOBIN CONCENTRATION [2]: 38.9 G/DL
MEAN CORPUSCULAR VOLUME [2]: 63.07 fL
MONOCYTE [2]: 0.67%
NEUTROPHIL [2]: 6.33%
NUCLEATED RED BLOOD CELLS [2]: 0 /100WBC
PLATELET COUNT [2]: 1257.67 x10E3/uL
ALANINE AMINOTRANSFERASE [2]: 49.33 u/L
ALBUMIN [2]: 4.2 G/DL
ALKALINE PHOSPHATASE [2]: 379.33 u/L
ASPARTATE AMINOTRANSFERASE [2]: 77.67 u/L
BLOOD UREA NITROGEN [2]: 16 mg/dL
CARBON DIOXIDE [2]: 28.67 mmol/L
CHLORIDE [2]: 104.67 MEQ/L
CHOLESTEROL [2]: 74.33 mg/dL
CREATINE PHOSPHOKINASE [2]: 301.33 u/L
CREATININE [2]: 0.2 mg/dL
GLUCOSE [2]: 164 mg/dL
LACTATE DEHYDROGENASE [2]: 99.33 u/L
LIPASE [2]: 9 u/L
PHOSPHORUS [2]: 10.9 mg/dL
POTASSIUM [2]: 5.63 MEQ/L
SODIUM [2]: 146.33 MEQ/L
TOTAL BILIRUBIN [2]: 0.17 mg/dL
TOTAL PROTEIN [2]: 6 G/DL
URIC ACID [2]: 1.13 mg/dL
ABSOLUTE BASOPHIL [3]: 0 CELLS/uL
ABSOLUTE EOSINOPHIL [3]: 0 CELLS/uL
ABSOLUTE LYMPHOCYTE [3]: 12825 CELLS/uL
ABSOLUTE MONOCYTE [3]: 117.67 CELLS/uL
ABSOLUTE SEGMENTED NEUTROPHIL [3]: 1290.67 CELLS/uL
BASOPHIL [3]: 0%
EOSINOPHIL [3]: 0%
ERYTHROCYTE COUNT [3]: 5.78 x10E6/uL
HEMATOCRIT [3]: 35.33%
HEMOGLOBIN [3]: 13.37 G/DL
LEUKOCYTE COUNT [3]: 14.23 x10E3/uL
LYMPHOCYTE [3]: 90.33%
MEAN CORPUSCULAR HEMOGLOBIN [3]: 23.13 pg
MEAN CORPUSCULAR HEMOGLOBIN CONCENTRATION [3]: 37.87 G/DL
MEAN CORPUSCULAR VOLUME [3]: 61.23 fL
MONOCYTE [3]: 1%
NEUTROPHIL [3]: 8.67%
NUCLEATED RED BLOOD CELLS [3]: 0.33 /100WBC
PLATELET COUNT [3]: 1309.67 x10E3/uL
ALANINE AMINOTRANSFERASE [3]: 52.33 u/L
ALBUMIN [3]: 4 G/DL
ALKALINE PHOSPHATASE [3]: 520 u/L
ASPARTATE AMINOTRANSFERASE [3]: 97.33 u/L
BLOOD UREA NITROGEN [3]: 13.67 mg/dL
CARBON DIOXIDE [3]: 23.33 mmol/L
CHLORIDE [3]: 106.33 MEQ/L
CHOLESTEROL [3]: 55 mg/dL
CREATINE PHOSPHOKINASE [3]: 913 u/L
CREATININE [3]: 0.19 mg/dL
GLUCOSE [3]: 175.33 mg/dL
LACTATE DEHYDROGENASE [3]: 124.33 u/L
LIPASE [3]: 8.67 u/L
PHOSPHORUS [3]: 11.6 mg/dL
POTASSIUM [3]: 5.22 MEQ/L
SODIUM [3]: 144.53 MEQ/L
TOTAL BILIRUBIN [3]: 0.17 mg/dL
TOTAL PROTEIN [3]: 5.87 G/DL
URIC ACID [3]: 1.37 mg/dL
